From patent US6274568A, “Compounds for altering cell surface sialic acids and methods of use therefor” (priority 1999, dated 2001)
“Also recorded” adds a separate entry of the source.

Legend:
[1] = test system: NG108-15 cells; assay: Uptake of mannosamine precursors and conversion to sialic acids (precursor pool, gangliosides, glycoproteins) in NG108-15 cells, HPLC; assay type: cell-based, mouse neuroblastoma/rat glioma hybrid; details: for ganglioside (lipid) sialic acid in the NeuGc form: NG108-15, 20 mM precursor (FIG. 3)
Procedure: (§1) Cells were harvested using hypertonic Ca^2+ - and Mg^2+ -free phosphate-buffered saline containing 1 mM EDTA, collected by centrifugation, and homogenized in ice-cold water using a Potter-Elvehjem glass/Teflon homogenizer. Methanol (2.6 volumes) was added, the suspension mixed and brought to ambient temperature, then chloroform (1.3 volumes, based on the original homogenate) was added and the suspension mixed vigorously. The suspension was centrifuged 30 min at 2,000×g. After collecting the supernatant, the pellet (containing precipitated proteins) was resuspended in water or concentrated ammonium hydroxide and a portion was used for protein assay (BCA, Pierce, Rockford, Ill.). The supernatant was partitioned by adjusting the chloroform-methanol-water ratio to 4:8:5.6 by addition of water, mixing thoroughly, and centrifuging as above. The upper phase was collected and a portion was subjected to reverse phase chromatography, using Sep-Pak C18 cartridges (Waters, Milford, Mass.), to isolate gangliosides (Schnaar, Methods Enzymol. 230:371, 1994).
(§2) To quantify and identify sialic acids, a portion of resolublized protein, organic/aqueous soluble pool, or reverse-phase purified gangliosides was evaporated to dryness in a 500-μl polypropylene tube and 20 μl of 0.1 M HCl/0.25 M NaCl was added. One Ampliwax bead (Perkin Elmer Corp, Foster City, Calif.) per reaction was added to block evaporation, and the sample hydrolyzed for 3 h at 80° C. Released sialic acids were analyzed by injecting an aliquot (1-10 μl) onto a Dionex high pressure liquid chromatography system (Dionex Corporation, Sunnyvale, Calif.) using a HPIC-AS6 column and a pulsed amperometric detector. Elution solutions were: A, 0.75 mM NaOH; B, 200 mM NaOH; and C, 400 mM sodium acetate in 50 mM NaOH. NeuAc and NeuPr were resolved by elution with 40% A, 50% B, 10% C for 15 min at 1 ml/min. NeuGc was resolved in separate injections using step gradient elution: 0-1.8 min, 18% A, 50% B, 32% C; 2-10 min, 40% B, 60% C. Sialic acids were identified by comparison of their elution time with those of standard NeuAc, NeuPr and NeuGc and were quantified in comparison to a standard curve of commercial NeuAc (for NeuAc and NeuPr) or NeuGc.
(§3) To confirm that the quantified peaks represented sialic acids, 10 μl of acid hydrolysates were treated with 1 μl of 1 M sodium phosphate (pH 7.2) and 10 μl of 0.1 M NaOH. Neutralized samples were incubated at 37° C. for 2 h with or without 0.9 U of N-acetylneuraminic acid aldolase (Sigma), 32 μM NADH and 0.1 μg lactate dehydrogenase. Sialic acid content in the ganglioside and glycoprotein fractions is expressed per mg of total cell protein. Precursor pool sialic acid (sialic acid plus CMP-sialic acid) was calculated by subtracting the ganglioside value from the organic/aqueous pool value, both expressed per mg of cell protein.
Sialic acid is biosynthesized from the precursor sugar N-acetylmannosamine (FIG. 2). In the present invention, sialic acids are converted on live neuronal cells from NeuAc, which is a key determinant for MAG binding, to NeuGc, which is non-permissive for MAG binding. A potential NeuGc precursor, N-glycolylmannosamine monoacetate (ManNGcMA, FIG. 1, R1 =H) was tested for its ability to generate altered sialic acids in neuronal and non-neuronal cells. N-propanoylmannosamine (ManNPr) and other N-acyl mannosamine derivatives have been used to modify glycoprotein associated sialic acids to the corresponding N-acylneuraminic acid. N-propanoyl-mannosamine (ManNPr), was used as a positive control. […] Cell pellets were fractioned into lipid associated, protein associated, and intracellular (lipid and cytoplasmic which may consist of oligosaccharide-bound, free, or CMP-activated sialic acid) sialic acids and hydrolyzed to release sialic acid. The hydrolyzed samples were then analyzed by HPLC to determine sialic acid content. […]

[2] = test system: Jurkat cells; assay: Uptake of mannosamine precursors and conversion to sialic acids in Jurkat cells, HPLC; assay type: cell-based, human; details: 48 h
Procedure: as §1, §2, §3
Sialic acid is biosynthesized from the precursor sugar N-acetylmannosamine (FIG. 2). In the present invention, sialic acids are converted on live neuronal cells from NeuAc, which is a key determinant for MAG binding, to NeuGc, which is non-permissive for MAG binding. A potential NeuGc precursor, N-glycolylmannosamine monoacetate (ManNGcMA, FIG. 1, R1 =H) was tested for its ability to generate altered sialic acids in neuronal and non-neuronal cells. N-propanoylmannosamine (ManNPr) and other N-acyl mannosamine derivatives have been used to modify glycoprotein associated sialic acids to the corresponding N-acylneuraminic acid. N-propanoyl-mannosamine (ManNPr), was used as a positive control. Jurkat human lymphoma cells and NG108-15 cells (rodent neuroblastoma/glioma hybrid cells) were incubated in 20 mM synthetic precursor or control precursor (N-acetylmannosamine, ManNAc) for 48 h, then harvested. Cell pellets were fractioned into lipid associated, protein associated, and intracellular (lipid and cytoplasmic which may consist of oligosaccharide-bound, free, or CMP-activated sialic acid) sialic acids and hydrolyzed to release sialic acid. […]

[3] = test system: MAG-Fc chimera; assay: MAG-Fc binding to precursor-treated NG108-15 cells by flow cytometry; assay type: cell-based
Procedure: Flow cytometry was used to test binding of a soluble MAG-Fc chimera to precursor-treated and control NG108-15 cells. A chimeric protein consisting of the entire extracellular domain of MAG fused via a three amino acid bridge (TGK) to the human Fc domain was produced using the "pIgPlus" vector (Novagen, Madison, Wis.). A PCR fragment coding for the extracellular domain of MAG was prepared using MAG in pCDM8 as template (Yang et al., 1996a), the T7 5' primer […] (SEQ ID NO:1) and […] (SEQ ID NO:2) as the 3' primer. The fragment was cut with BamHI and HindIII and directionally cloned into the pIgPlus vector. The resulting construct was sequenced to confirm its identity, transfected into COS cells, and the resulting MAG-Fc chimera was purified from the culture medium using Protein G affinity chromatography.
For MAG binding studies, NG108-15 cells were cultured in the presence of sialic acid precursors for the indicated times, then were released from culture dishes using hypertonic Ca^2+ /Mg^2+ -free phosphate-buffered saline (Yang et al., Proc. Natl. Acad. Sci. USA., 93:814, 1996) and resuspended (at […]) in 25 mM Hepes-buffered Hanks balanced salt solution (Bashor, Methods Enzymol., 58:119, 1979) containing 5 mg/ml bovine serum albumin. MAG-Fc (6 μg) was added to 100 μl of the same buffer containing 6 μg fluorescein isothiocyanate-labeled goat anti-human Fc (Jackson Immunoresearch, West Grove, Pa.) and incubated on ice for 1 h 45 min with frequent mixing. Cell suspension (100 μl containing 50,000 cells) was added to the premixed antibody solution and the mixture incubated on ice for 45 min. The cells were then centrifuged for 4 sec at 16,000×g and washed three times by resuspension in 200 μl of buffer with bovine serum albumin and centrifugation. The resulting cell pellet was resuspended in 100 μl buffer with bovine serum albumin and flow cytometry was performed on an Epics Profile II cytometer (Coulter Corp, Hialeah, Fla.).
NG108-15 cells, a mouse neuroblastoma/rat glioma hybrid, display many qualities of cholinergic neurons, including neurite outgrowth, synthesis, storage and release of acetylcholine, and functional synapse formation with muscle cells in vitro. Neurite outgrowth from NG108-15 cells is inhibited by MAG (McKerracher et al., Neuron, 13:805, 1994), an interaction which is reversed by pretreatment of the cells with neuraminidase (Schnaar et al., Ann. N.Y. Acad. Sci., 845:92, 1998). […] Binding was quantified by flow cytometry. […]

[4] = test system: myelin-associated glycoprotein (MAG); details: cited from earlier work
[5] = test system: NG108-15 cells; assay: Cell growth and viability of precursor-treated NG108-15 cells; details: 1 mM
Procedure: Cell growth rates were determined in control cultures (.box-solid.), in cultures treated with 0.08 mM (.circle-solid.), 0.25 mM (.smallcircle.), or 1 mM (.quadrature.) ManNGcPA, and in cultures treated with 0.25 mM (.tangle-solidup.) or 1 mM (Δ) glucose pentaacetate.
NG108-15 cells were maintained in Dulbecco's modified Eagle's medium (high glucose formulation) containing 5% iron-enriched calf serum, 100 μM hypoxanthine, 16 μM thymidine, and 5 μM aminopterin. […] Both cell types were cultured at 37° C. in a humidified atmosphere of 90% air/10% CO2. For treatment with sialic acid precursors, mannosamine derivatives were diluted into the appropriate medium and filter sterilized. […] In experiments testing ManNGcPA, all cells (control and experimental) were grown in the presence of 0.5% (v/v) DMSO, the carrier for ManNGcPA.

[6] = NG108-15, 20 mM precursor, 48 h

CC(=O)N[C@@H]1C(O)O[C@H](CO)[C@@H](O)[C@@H]1O (stereo partly drawn) [ManNAc, N-acetylmannosamine, reference compound]
increase in intracellular sialic acid (precursor pool) ([1]; 20 mM precursor, 48 h): ≤ 14 fold | increase in total glycoprotein sialic acid ([1]; 20 mM precursor, 48 h): ≈ 2 fold | levels of intracellular sialic acid [1, 6]: high levels | levels of intracellular sialic acid ([2]; 20 mM precursor): high levels

CC(=O)N[C@@H]1C(OC(C)=O)O[C@H](COC(C)=O)[C@@H](OC(C)=O)[C@@H]1OC(C)=O (stereo partly drawn) [ManNAc-tetraacetate, ManNAc tetra-O-acetate, reference compound]
effect on MAG-Fc binding ([3]; 1 mM, 96 h): no significant effect on binding

CC(=O)OC[C@H]1OC(OC(C)=O)[C@@H](NC=O)[C@@H](OC(C)=O)[C@@H]1OC(C)=O (stereo partly drawn) [ManNFr-OAc, N-formylmannosaminne peracetate]
glycolipid associated sialic acid as NeuFr ([1]; 48 hours): 10% | levels of intracellular sialic acid in the form of NeuFr ([1]; FIG. 13): elevated levels of intracellular sialic acid in the form of N-formyneuraminic acid

O=C(CO)N[C@@H]1C(O)O[C@H](CO)[C@@H](O)[C@@H]1O (stereo partly drawn) [ManNGc, N-glycolylmannosamine]
levels of NeuGc in any of the fractions analyzed ([1]; 5 mM): did not result in substantial levels of NeuGc | levels of NeuGc (elevation) ([1]; 5 mM in the presence of DMSO, 48 h): did not result in elevated levels of NeuGc | intracellular sialic acid in the form of NeuGc ([1]; 5 mM, 48 h): 13.6% | protein associated sialic acid as NeuGc ([1]; 5 mM, 48 h): 9.5% | total lipid associated sialic acid as NeuGc ([1]; 5.0 mM, 48 h): 5% | ganglioside (lipid) sialic acid in the NeuGc form ([1]; 48 h): ~70% | intracellular NeuGc ([1]; NG108-15 compared with Jurkat, 48 h): substantially lower levels | glycoconjugate sialic acid in the form of NeuGc ([1]; in MAG recognition experiment): 60% | intracellular NeuGc [2]: expected rise in intracellular NeuGc | lipid sialic acid in the form of NeuGc [2]: Approximately 50% | protein sialic acid in the form of NeuGc [2]: Approximately 50% | decrease in MAG-mediated recognition ([3]; ng108-15 cells): 60%

CC(=O)OCC(=O)N[C@@H]1C(O)O[C@H](CO)[C@@H](O)[C@@H]1O (stereo partly drawn) [ManNGcMA, N-Glycolylmannosamine monoacetate]
incorporation of NeuGc into gangliosides, relative to 1 mM ManNGcPA ([1]; 5 mM, 48 h): much less | incorporation of NeuGc into glycoproteins, relative to 1 mM ManNGcPA ([1]; 5 mM, 48 h): much less | conversion of glycoprotein sialic acids to the NeuGc form ([1]; 20 mM precursor, 48 h): ≈ 30% | decrease in total glycoprotein sialic acid ([1]; 20 mM precursor, 48 h): ≈ 40% | sialic acid precursor pool in the NeuGc form ([1]; 20 mM precursor, 48 h): ≈ 70% | sialic acid precursor pool size compared to untreated control ([1]; 20 mM precursor, 48 h): markedly smaller sialic acid precursor pool | sialic acid precursor pool size ([1]; 0.1 or 1.0 mM ManNGcPA, or 5 mM ManNGcMA, 48 h): none of these treatments significantly altered the sialic acid precursor pool size | ganglioside (lipid) sialic acid in the NeuGc form ([1]; 48 h): ≈ 30% | size of the ganglioside pool [1, 6]: remained relatively constant | sialic acid precursor pool as NeuGc ([2]; 20 mM precursor): nearly all NeuGc | total sialic acid precursor pool size ([2]; 20 mM precursor): increase in total sialic acid precursor pool size (comparable to treatment with ManNPr)

O=C(CO)N[C@H]1[C@H]([C@H](O)[C@H](O)CO)OC(O)(C(=O)O)C[C@@H]1O (stereo partly drawn) [NeuGc, N-glycolylneuraminic acid]
support of MAG binding / recognition [4]: but not N-glycolylneuraminic acid (NeuGc) support MAG binding; also recorded: does not support MAG binding

glucose pentaacetate
cell growth [5]: more profound decreases in cell growth and viability than the ManNGcPA-treated cells | cell viability (in words) [5]: more profound decreases in cell growth and viability than the ManNGcPA-treated cells
